{"source": "patent US11634458B2", "about": "“Peptides and compositions for use in cosmetics and medicine” (LIPOTRUE, S.L., priority 2018, dated 2023)", "key": {"Munc18/Syntaxin-1": {"molecular_target": "Munc18/Syntaxin-1 (Homo sapiens, UniProt Q16623)", "sequence (Q16623 whole entry)": "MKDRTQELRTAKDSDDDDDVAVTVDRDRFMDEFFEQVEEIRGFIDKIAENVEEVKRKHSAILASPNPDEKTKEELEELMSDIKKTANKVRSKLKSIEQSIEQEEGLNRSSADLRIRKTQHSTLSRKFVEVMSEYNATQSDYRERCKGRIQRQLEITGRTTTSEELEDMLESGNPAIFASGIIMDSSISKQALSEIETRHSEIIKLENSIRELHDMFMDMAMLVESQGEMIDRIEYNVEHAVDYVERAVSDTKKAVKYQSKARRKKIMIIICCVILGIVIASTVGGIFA", "assay": "ELISA-based in vitro Munc18/Syntaxin-1 binding assay", "conditions": "peptide 0.1, 0.5 and 1 mM; Munc18 100 nM, Syntaxin-1 10 and 5 nM; control = 100% binding", "description": "The capacity of the peptides to inhibit Munc18 protein-protein interaction with Syntaxin-1, a SNARE complex protein, was functionally evaluated by means of an ELISA-based in vitro Munc18/Syntaxin-1 binding assay. Briefly, the above-mentioned peptides at 0.1, 0.5 and 1 mM were preincubated with their target protein Syntaxin-1 (GST-tagged) at 10 and 5 nM in buffer (20 mM Hepes, 150 mM NaCl, 2 mM MgC2, 2 mM DTT, 0.5% Triton-X100 and 0.5% non-fat milk) for 3 hours at RT. Meanwhile, His-tagged Munc18 was bound to a Nickel-coated 96-well plate at 100 nM and incubated at RT for 1.5 hours. Non-bound protein was subsequently washed away before blocking wells with non-fat milk in wash buffer (PBS+0.02% Triton-X100) for additional 30 minutes. GST-tagged Syntaxin-1 preincubated with the peptides was then added at 10 and 5 nM to the plate and incubated for 2 h at RT. Wells were washed three times with wash buffer before incubation with the primary antibody (GST tag polyclonal antibody—Thermofisher Scientific, Massachusetts, USA) for 45 minutes. Finally, after washing again, HRP-conjugated secondary antibody (Anti-Rabbit-IgG-HRP—Sigma, Missouri, USA) was added and incubated at RT. TMB substrate (3,3′,5,5′-Tetramethylbenzidine) was used to develop signal. […] Amount of binding of Syntaxin-1 protein to Munc18 protein was analysed by measuring absorbance at 450 nm."}, "SH-SY5Y cells": {"tested_on": "SH-SY5Y cells", "assay": "Exocytosis levels and delay (fluorescent exocytosis reporter)", "assay_type": "cell-based, human", "conditions": "0.01 mg/mL, 1 hour, PMA + ionomycin, vs non-treated cells", "description": "The potential of said peptide Ac-SEQ ID NO: 8-NH2 to modulate the exocytosis of vesicles containing neurotransmitters from a neuroblastoma cell line was evaluated in vitro using SH-SY5Y cells, by fluorescence imaging using a Zeiss axiovert 200 inverted epifluorescence microscope with a 20× objective and a Xenon lamp.\nSH-SY5Y cells (Sigma, USA) were cultured in T25 flasks in supplemented medium (DMEM/F12, Gibco, USA). Above 90% confluence, cells were trypsinized with 1 ml of 0.5% (v/v) Trypsin-EDTA. Next, 5 mL of said supplemented medium was added and cell concentration determined. Cells were seeded onto polyLysine-coated 12 mm-treated coverslips in 24 well-plates at 15×10^4 cells/well in supplemented medium (Gibco, USA) and incubated at regular conditions (37° C., 5% CO2). After 24 h cell seeding, cells were transfected with exocytosis reporter using Lipofectamine™ 3000 (Invitrogen, USA) following manufacturer's instructions. Reporter construct contained fusion protein made up of intraluminal-specific proteins and a pH-sensitive fluorescent protein.\nFor exocytosis monitorization, after 48 h of protein expression, cells were incubated with 0.01 mg/mL of Ac-SEQ ID NO: 8-NH2 peptide or 1 mg/mL of the benchmark acetyl hexapeptide-8 for 1 h at 37° C. and 5% CO2. Non-treated cells were used as basal control. […] Fluorescence imaging was done for the last 10 min of the stimulation protocol. Fluorescence signal of exocytosis reporter was monitored employing 483-512 nm excitation-filter and 525-530 nm emission-filter. […]\nNon-treated cells were assayed in N=4 independent experiments with n=16 coverslips (483 cells measured), acetyl hexapeptide-8-treated cells in N=3 independent experiments with n=10 coverslips (328 cells measured) and Ac-SEQ ID NO: 8-NH2-treated cells in N=3 independent experiments with n=8 coverslips (240 cells measured). Cells were selected to individually monitor fluorescence intensity and time-course. Fluorescence peak evoked by ionomycin addition was used to quantify exocytosis by calculating the Area under the curve (AUC) using GraphPad software. Two parameters were defined and analyzed: • Exocytosis levels: For individual cells, total peak area was obtained from AUC analysis and was normalized by the baseline that was defined as fluorescence intensity 3-cycles before lonomycin injection. • Exocytosis delay: For individual cells, response time (min) was obtained from AUC analysis as time frame between lonomycin injection (Y) and initiation of peak (firstX).\nFluorescence values were further normalized as percentage change to non-treated cells on each experiment as: (exocytosis level of treated cells/exocytosis levels non-treated cells)×100 and (response time of treated cells/response time of non-treated cells)×100. […]"}}}
{"substance": "Ac-His-Ala-Leu-Arg-Phe-Trp-NH2 [Ac-SEQ ID NO: 8-NH2]", "values": [{"measurement": "Maximum inhibition of Munc18-Syntaxin-1 binding", "setting": "Munc18/Syntaxin-1", "result": 37, "unit": "%"}, {"measurement": "change of exocytosis levels", "setting": "SH-SY5Y cells", "result": "−14", "unit": "%"}, {"measurement": "exocytosis response time delay", "setting": "SH-SY5Y cells", "result": 24, "unit": "%"}]}
